In patent US20130245081A1, “Compositions and Methods for Treating Amyotrophic Lateral Sclerosis” (priority 2009, published 2013):

Assay: clinical
Settings: for AUC(0-t) / AUC(0-inf) / Cmax / Tmax / Vd/F / half-life / CL renal: both, human, oral; for AUC(0-t) / AUC(0-inf) / Cmax / Tmax / Vd/F / half-life: plasma; for AUC(0-t): AUC0-t; for AUC(0-inf): AUCinf; for Vd/F: Vz/F; for CL renal: urine and plasma, CLr
Source text: A total of 54 subjects (30 subjects in Study CL001 and 24 subjects in Study CL002) were enrolled. Healthy, non-smoking, male and female subjects 30 to 60 years of age, inclusive, with normal or clinically acceptable physical examination and electrocardiogram (ECG) findings, systolic (90 to 140 mmHg) and diastolic (50 to 90 mmHg) blood pressure, and resting heart rate (50 to 100 bpm) who were willing to provide signed, written informed consent were eligible for enrollment. Female volunteers had to be of non-childbearing potential with negative pregnancy test results at screening and clinic check-in. Subjects with any history of neurodegenerative illnesses were excluded. The use of over-the-counter medications within 7 days prior to enrollment or prescription medications within 12 weeks prior to enrollment was prohibited.
In the first study, subjects were enrolled in 3 successive double-blind, placebo-controlled panels of 8 subjects (n=6 active, n=2 placebo per panel).
Matching placebo capsules contained equivalent weights of microcrystalline cellulose. Capsules were administered orally with water. […] Subjects in the fasted cohorts were required to fast overnight for a minimum of 10 hours before dose administration. Subjects in the food cohort were required to fast overnight for a minimum of 10 hours before dose administration, with exception of the high fat/high calorie meal that was administered 30 minutes prior to drug administration. […] All available safety data were reviewed under blinded conditions to monitor for serious safety or tolerability events prior to proceeding with dose escalations.
Blood samples were collected into a 10 mL dipotassium ethylenediaminetetraacetic acid (K2-EDTA) Vacutainer® via an indwelling peripheral intravenous cannula or by direct venipuncture. Within 15 minutes of collection, the samples were centrifuged at 3000 rpm for 10 minutes at 4° C. After centrifugation, the plasma was divided into 2 aliquots of at least 1.5 mL each, placed into polypropylene containers, frozen, and stored at −20° C. until they were shipped for analysis.
Urine collected in each interval was well mixed, the pH was recorded, the total volume (or the weight and specific gravity) was recorded, and 2 aliquots of 20 mL each were collected into polypropylene containers and stored at −20° C. until they were shipped for analysis. All plasma and urine sample were shipped frozen on dry ice in 2 separate shipments per group (1 set of aliquots per shipment) to Eurofins AvTech Laboratories Inc. (Kalamazoo, Mich.) for bioanalytical analysis.
Plasma and urine concentrations were measured using validated liquid chromatography/mass spectrometry/mass spectrometry (LC/MS/MS) methods. […] The analytical procedure for analysis of plasma samples used a 100 μL aliquot of K2EDTA human plasma. The plasma sample was spiked with 20 μL of working internal standard solution and 20 μL of type 1 water for subject samples and QCs and 20 μL of the appropriate intermediate standard solution for standards. One hundred microliters ([…]) of 50% ammonium hydroxide solution was added to the sample followed by vortex mixing. One milliliter (1 mL) of tertbutyl methyl ether was then added and the sample was vortexed to extract the analyte and internal standard into the organic layer, followed by separation using flash freezing. The organic layer was decanted, evaporated to dryness, and the sample was reconstituted with 0.5 mL of reconstitution solution (0.1% ammonium hydroxide in 50:50 methanol; type 1 water (v/v/v)). A 10 μL aliquot of this reconstituted sample was injected into an LC/MS/MS system for analysis. […] The analytical procedure for analysis of urine samples was essentially similar to the plasma procedure.

In the case of CCCN[C@@H]1CCc2nc(N)sc2C1 [dexpramipexole, (6R)-2-amino-4,5,6,7-tetrahydro-6-(propylamino)benzothiazole], the “eliminated in urine as unchanged parent drug” value (both Phase 1 studies) is reported as 84-90 % of dose, the AUC(0-t) (50 mg, single 50 mg, fasted) is reported as 989 ± 295 ng·h/mL and the AUC(0-inf) (50 mg, single 50 mg, fasted) is reported as 1250 ± 347 ng·h/mL. The Cmax (50 mg, single 50 mg, fasted) was 125 ± 22 ng/mL, the Tmax (50 mg, Tmax (median), single 50 mg, fasted) was 2.04 h and the Vd/F (50 mg, single 50 mg, fasted) was 294 ± 46.2 L. It also gave an AUC(0-t) (150 mg, single 150 mg, fasted) of 3360 ± 780 ng·h/mL, an AUC(0-t) (150 mg, single 150 mg, fed) of 3080 ± 934 ng·h/mL and an AUC(0-inf) (150 mg, single 150 mg, fasted) of 3780 ± 1010 ng·h/mL. The AUC(0-inf) (150 mg, single 150 mg, fed) was 3380 ± 957 ng·h/mL, the Cmax (150 mg, single 150 mg, fasted) was 360 ± 60.4 ng/mL and the Cmax (150 mg, single 150 mg, fed) was 315 ± 61.6 ng/mL. It also gave a Tmax (150 mg, Tmax (median), single 150 mg, fasted) of 2.04 h, a Tmax (150 mg, Tmax (median), single 150 mg, fed) of 2.58 h and a Vd/F (150 mg, single 150 mg, fasted) of 311 ± 68.4 L. The Vd/F (150 mg, single 150 mg, fed) was 308 ± 55.9 L, the half-life (150 mg, t1/2, single 150 mg, fed) was 6.33 ± 1.49 h and the AUC(0-t) (300 mg, single 300 mg, fasted) was 8340 ± 3200 ng·h/mL. The AUC(0-inf) (300 mg, single 300 mg, fasted) was 8620 ± 3260 ng·h/mL, the Cmax (300 mg, single 300 mg, fasted) was 781 ± 158 ng/mL and the Tmax (300 mg, Tmax (median), single 300 mg, fasted) was 1.98 h. For the same compound, the Vd/F (300 mg, single 300 mg, fasted) was 258 ± 73.5 L, the half-life (300 mg, elimination t1/2, single 50, 150, 300 mg, fasted) was 6.4 to 6.96 h and the Tmax (Tmax, range over both Phase 1 studies, single and multiple doses) was 1.75 to 2.58 h. The half-life (t1/2, range over both Phase 1 studies, fasted conditions) was 6.4 to 8.05 h, the CL renal (50 mg, single 50 mg, fasted) was 628 ± 149 mL/min and the CL renal (150 mg, single 150 mg, fasted) was 385 mL/min. The CL renal (150 mg, single 150 mg, fed) was 559 ± 140 mL/min, the CL renal (300 mg, single 300 mg, fasted) was 441 ± 159 mL/min and the “time of maximum concentrations after dosing” value (oral administration) was 2 h. It also gave a CL/F (single 50 mg, fasted) of 527 ± 135 mL/min, a Fe (single 50 mg, fasted) of 94.7 ± 13.9 % dose and a Ue (single 50 mg, fasted) of 35.3 ± 5.19 mg. The λz (single 50 mg, fasted) was 0.1064 ± 0.0171 h⁻¹, the CL/F (single 150 mg, fasted) was 524 ± 146 mL/min and the Fe (single 150 mg, fasted) was 66.9 ± 44.8 % dose. For the same compound, the Ue (single 150 mg, fasted) was 74.8 ± 50.17 mg, the λz (single 150 mg, fasted) was 0.1001 ± 0.0087 h⁻¹ and the CL/F (single 150 mg, fed) was 581 ± 127 mL/min. For the same compound, the Fe (single 150 mg, fed) was 86.6 ± 4.21 % dose, the Ue (single 150 mg, fed) was 96.9 ± 4.71 mg and the λz (single 150 mg, fed) was 0.1144 ± 0.0259 h⁻¹. For the same compound, the CL/F (single 300 mg, fasted) was 492 ± 194 mL/min, the Fe (single 300 mg, fasted) was 88.3 ± 12.5 % dose and the Ue (single 300 mg, fasted) was 198 ± 28.0 mg. For the same compound, the λz (single 300 mg, fasted) was 0.1151 ± 0.0309 h⁻¹ and the “dose recovered as unchanged parent drug in the urine” value (single doses) was “Approximately 90%”.
